According to patent publication US7282507B2, “Indole derivatives as selective androgen receptor modulators (SARMS)” (Janssen Pharmaceutica N.V., priority 2004, dated 2007):
Several values for one entry are separate records, joined by “and”; a condition that tells them apart may be missing. Identical values can stand only once.

Target: T1, androgen receptor (AdEasy+rAR, L929 cells) (Rattus norvegicus, UniProt P15207)
T1 construct: expressed in transfected cells; host or cells: L929 cells transduced with adenovirus AdEasy+rAR
T1 sequence (P15207 1-902): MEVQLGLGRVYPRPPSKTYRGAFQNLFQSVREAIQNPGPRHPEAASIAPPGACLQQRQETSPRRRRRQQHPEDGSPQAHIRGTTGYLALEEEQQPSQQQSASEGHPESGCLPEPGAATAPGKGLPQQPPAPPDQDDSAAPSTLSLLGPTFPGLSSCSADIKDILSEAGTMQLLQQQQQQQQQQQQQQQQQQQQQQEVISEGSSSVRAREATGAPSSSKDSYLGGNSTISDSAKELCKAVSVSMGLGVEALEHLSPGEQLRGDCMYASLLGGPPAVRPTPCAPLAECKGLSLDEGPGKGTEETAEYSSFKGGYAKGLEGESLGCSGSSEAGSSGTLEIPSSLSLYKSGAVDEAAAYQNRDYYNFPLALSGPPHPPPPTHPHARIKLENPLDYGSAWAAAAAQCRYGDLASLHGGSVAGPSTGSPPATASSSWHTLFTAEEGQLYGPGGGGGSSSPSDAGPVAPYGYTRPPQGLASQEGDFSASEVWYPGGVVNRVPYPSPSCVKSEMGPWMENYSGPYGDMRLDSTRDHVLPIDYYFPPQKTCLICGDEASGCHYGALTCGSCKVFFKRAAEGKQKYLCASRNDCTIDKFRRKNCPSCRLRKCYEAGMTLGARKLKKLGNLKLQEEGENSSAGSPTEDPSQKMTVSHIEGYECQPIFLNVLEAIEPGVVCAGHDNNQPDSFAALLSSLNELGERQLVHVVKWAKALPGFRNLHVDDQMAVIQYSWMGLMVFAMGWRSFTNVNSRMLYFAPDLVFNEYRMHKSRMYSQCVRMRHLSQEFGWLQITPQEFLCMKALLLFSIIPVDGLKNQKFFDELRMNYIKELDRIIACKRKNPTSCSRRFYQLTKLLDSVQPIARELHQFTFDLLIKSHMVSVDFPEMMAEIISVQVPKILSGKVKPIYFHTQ
Assay: L929 Androgen Receptor Functional Assay, Adenovirus Transduction
Format: cell-based
Details: for inhibition at 3 µM: L929, antagonist testing with R1881, 3000 nM; for % Activity, L929 androgen receptor functional assay / EC50: agonist testing; for IC50: antagonist testing with R1881; for % Inhibition, L929 androgen receptor functional assay: antagonist testing with R1881, 3000 nM
Summary of the method: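 L929 cells in phenol red-free, charcoal-stripped serum medium transduced with AdEasy+rAR (moi 1:500) and exposed 48 h at 37 °C to compound alone (agonist mode) or with R1881 (antagonist mode; 2.5 nM as the 2.5× dilution).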

## CC(O)(CSC1CCCC1)c1cc2cc([N+](=O)[O-])c(C(F)(F)F)cc2[nH]1 (stereo not shown) [Compound 173]
  inhibition at 3 µM: 40%
3000 nM
  % Activity, L929 androgen receptor functional assay: 2%

## CC(O)(CS(=O)(=O)c1ccc(N)cc1)c1cc2cc(Cl)c(C(F)(F)F)cc2[nH]1 (stereo not shown) [Compound 118]
  inhibition at 3 µM: 63%
  EC50: > 8000 nM
  IC50: 3070 nM
@ 8000 nM
  % Activity, L929 androgen receptor functional assay: −2 @ 8000 nM %

## CCSCC(C)(O)c1cc2cc([N+](=O)[O-])c(C(F)(F)F)cc2[nH]1 (racemic) [Compound 142]
  inhibition at 3 µM: 78%
3000 nM
  % Activity, L929 androgen receptor functional assay: 0%

## CCSCC(C)(O)c1cc2cc([N+](=O)[O-])c(C(F)(F)F)cc2n1S(C)(=O)=O (stereo not shown) [Compound 141]
  inhibition at 3 µM: 42%
3000 nM
  % Activity, L929 androgen receptor functional assay: 0%

## COc1ccc(SCC(C)(O)c2cc3cc(Cl)c(C(F)(F)F)cc3n2S(C)(=O)=O)cc1 (racemic) [Compound 130]
3000 nM
  % Activity, L929 androgen receptor functional assay: −5%

## CCSCC(C)(O)c1cc2cc([N+](=O)[O-])c(C(F)(F)F)cc2[nH]1 (single isomer, unassigned) [Compound 150]
  EC50: > 8000 nM
  IC50: 303 nM
@ 8000 nM
  % Activity, L929 androgen receptor functional assay: 0 @ 8000 nM %

## CSCC(C)(O)c1cc2cc([N+](=O)[O-])c(C(F)(F)F)cc2[nH]1 (single isomer, unassigned) [Compound 145]
3000 nM, 3 µM
  % Activity, L929 androgen receptor functional assay: 1%
3 µM
  % Inhibition, L929 androgen receptor functional assay: 94%

## CC(O)(CSc1ccc(O)cc1)c1cc2cc(Cl)c(C(F)(F)F)cc2[nH]1 (stereo not shown) [Compound 120]
  inhibition at 3 µM: 44%
3000 nM
  % Activity, L929 androgen receptor functional assay: −5%

## CC(C)SCC(C)(O)c1cc2cc([N+](=O)[O-])c(C(F)(F)F)cc2[nH]1 (stereo not shown) [Compound 164]
  inhibition at 3 µM: 71%
3000 nM
  % Activity, L929 androgen receptor functional assay: 2%

## CC(O)(CS(C)(=O)=O)c1cc2cc(Cl)c(C(F)(F)F)cc2[nH]1 (stereo not shown) [Compound 138]
  inhibition at 3 µM: 19%
3000 nM
  % Activity, L929 androgen receptor functional assay: 0%

## CCSCC(O)c1cc2cc([N+](=O)[O-])c(C(F)(F)F)cc2[nH]1 (stereo not shown) [Compound 158]
  inhibition at 3 µM: 21%
3000 nM, 3 µM
  % Activity, L929 androgen receptor functional assay: 3% and 2%
3 µM
  % Inhibition, L929 androgen receptor functional assay: 29%

## CC[S+]([O-])C[C@](C)(O)c1cc2cc([N+](=O)[O-])c(C(F)(F)F)cc2[nH]1 (stereo in doubt) [Compound 155, 1-Ethanesulfinyl-2-(5-nitro-6-trifluoromethyl-1H-indol-2-yl)-propan-2-ol]
  inhibition at 3 µM: -2%
3000 nM
  % Activity, L929 androgen receptor functional assay: 2%

## CCCSCC(C)(O)c1cc2cc([N+](=O)[O-])c(C(F)(F)F)cc2[nH]1 (stereo not shown) [Compound 168]
  inhibition at 3 µM: 26%
3000 nM
  % Activity, L929 androgen receptor functional assay: 3%

## CC(O)(CS(C)(=O)=O)c1cc2cc([N+](=O)[O-])c(C(F)(F)F)cc2[nH]1 (stereo not shown) [Compound 140]
3000 nM
  % Activity, L929 androgen receptor functional assay: 0%
3 µM
  % Inhibition, L929 androgen receptor functional assay: 78%

## CCS(=O)(=O)CC(C)(O)c1cc2cc([N+](=O)[O-])c(C(F)(F)F)cc2[nH]1 (stereo not shown) [Compound 143]
  inhibition at 3 µM: 67%
3000 nM
  % Activity, L929 androgen receptor functional assay: 0%

## CCS(=O)(=O)C[C@](C)(O)c1cc2cc([N+](=O)[O-])c(C(F)(F)F)cc2[nH]1 [Compound 156, 1-Ethanesulfonyl-2-(5-nitro-6-trifluoromethyl-1H-indol-2-yl)-propan-2-ol]
  inhibition at 3 µM: 35%
3000 nM
  % Activity, L929 androgen receptor functional assay: 2%
3 µM
  % Inhibition, L929 androgen receptor functional assay: 23%

## CSCC(C)(O)c1cc2cc([N+](=O)[O-])c(C(F)(F)F)cc2[nH]1 (single isomer, unassigned) [Compound 144]
  inhibition at 3 µM: 82%
3000 nM, 3 µM
  % Activity, L929 androgen receptor functional assay: 0%

## COc1ccc(S(=O)(=O)CC(C)(O)c2cc3cc(Cl)c(C(F)(F)F)cc3[nH]2)cc1 (racemic) [Compound 129]
3000 nM
  % Activity, L929 androgen receptor functional assay: −5%
  % Inhibition, L929 androgen receptor functional assay: −8%

## CSCC(C)(O)c1cc2cc(C#N)c(C(F)(F)F)cc2[nH]1 (stereo not shown) [Compound 136]
  inhibition at 3 µM: 75%
3000 nM
  % Activity, L929 androgen receptor functional assay: 0%

## CC(O)(CS(C)(=O)=O)c1cc2cc([N+](=O)[O-])c(C(F)(F)F)cc2[nH]1 (stereo not shown) [Compound 147]
3000 nM
  % Activity, L929 androgen receptor functional assay: 0%
3 µM
  % Inhibition, L929 androgen receptor functional assay: 43%

## CC(O)(C[S+]([O-])Cc1ccccc1)c1cc2cc([N+](=O)[O-])c(C(F)(F)F)cc2[nH]1 (mixture of isomers) [Compound 161]
3000 nM
  % Activity, L929 androgen receptor functional assay: 2%

## CSCC(C)(O)c1cc2cc(Cl)c(C(F)(F)F)cc2[nH]1 (stereo not shown) [Compound 135]
  inhibition at 3 µM: 40%
3000 nM
  % Activity, L929 androgen receptor functional assay: 0%

## CCSCC(O)(CC)c1cc2cc([N+](=O)[O-])c(C(F)(F)F)cc2[nH]1 (stereo not shown) [Compound 169]
  inhibition at 3 µM: 98%
3000 nM
  % Activity, L929 androgen receptor functional assay: 2%

## CC(O)(CS(=O)(=O)c1ccc(O)cc1)c1cc2cc(Cl)c(C(F)(F)F)cc2[nH]1 (stereo not shown) [Compound 121]
  inhibition at 3 µM: 54%
3000 nM
  % Activity, L929 androgen receptor functional assay: −4%

## CC(O)(CSc1ccc([N+](=O)[O-])cc1)c1cc2cc(Cl)c(C(F)(F)F)cc2[nH]1 (stereo not shown) [Compound 122]
  inhibition at 3 µM: 35%
3000 nM
  % Activity, L929 androgen receptor functional assay: 10%

## CC(O)(CCS(C)(=O)=O)c1cc2cc([N+](=O)[O-])c(C(F)(F)F)cc2[nH]1 (stereo not shown) [Compound 49]
  inhibition at 3 µM: 8%
3000 nM
  % Activity, L929 androgen receptor functional assay: 2%

## CC(O)(CSCc1ccccc1)c1cc2cc([N+](=O)[O-])c(C(F)(F)F)cc2[nH]1 (stereo not shown) [Compound 160]
  inhibition at 3 µM: 76%
3000 nM
  % Activity, L929 androgen receptor functional assay: 1%

## CC(O)(CSCC(F)(F)F)c1cc2cc([N+](=O)[O-])c(C(F)(F)F)cc2[nH]1 (stereo not shown) [Compound 171]
  EC50: > 8000 nM
  IC50: 366 nM
3000 nM, 3 µM
  % Activity, L929 androgen receptor functional assay: 11%
@ 8000 nM
  % Activity, L929 androgen receptor functional assay: −1 @ 8000 nM %
3 µM
  % Inhibition, L929 androgen receptor functional assay: 101% and 70%

## CC(O)(CS(C)(=O)=O)c1cc2cc([N+](=O)[O-])c(C(F)(F)F)cc2[nH]1 (stereo not shown) [Compound 148]
3000 nM
  % Activity, L929 androgen receptor functional assay: 0%
3 µM
  % Inhibition, L929 androgen receptor functional assay: 77%

## CSCCC(C)(O)c1cc2cc([N+](=O)[O-])c(C(F)(F)F)cc2[nH]1 (stereo not shown) [Compound 47]
  inhibition at 3 µM: 75%
3000 nM
  % Activity, L929 androgen receptor functional assay: 2%

## CCS(=O)(=O)CC(C)(O)c1cc2cc([N+](=O)[O-])c(C(F)(F)F)cc2[nH]1 (stereo not shown) [Compound 151]
  EC50: > 8000 nM
  IC50: 533 nM
@ 8000 nM
  % Activity, L929 androgen receptor functional assay: −1 @ 8000 nM %

## CC(O)(CSc1ccc(N)cc1)c1cc2cc(Cl)c(C(F)(F)F)cc2[nH]1 (stereo not shown) [Compound 104]
  inhibition at 3 µM: 18%
3000 nM
  % Activity, L929 androgen receptor functional assay: 9%

## CCC(O)(CS(=O)(=O)CC)c1cc2cc([N+](=O)[O-])c(C(F)(F)F)cc2[nH]1 (stereo not shown) [Compound 176]
  inhibition at 3 µM: 81%
3000 nM
  % Activity, L929 androgen receptor functional assay: 3%

## COc1ccc(SCC(C)(O)c2cc3cc(Cl)c(C(F)(F)F)cc3[nH]2)cc1 (stereo not shown) [Compound 131]
  inhibition at 3 µM: -4%
3000 nM
  % Activity, L929 androgen receptor functional assay: −5%

## CCSCC(C)(O)c1cc2cc([N+](=O)[O-])c(C(F)(F)F)cc2[nH]1 (single isomer, unassigned) [Compound 149]
  inhibition at 3 µM: 77%
3000 nM
  % Activity, L929 androgen receptor functional assay: 2%

## CC(C)CSCC(C)(O)c1cc2cc([N+](=O)[O-])c(C(F)(F)F)cc2[nH]1 (stereo not shown) [Compound 170]
  inhibition at 3 µM: 67%
3000 nM
  % Activity, L929 androgen receptor functional assay: 2%
